Data on eleven molecules can be found in patent publication US10227327B2, “Inhibitors of metallo-beta-lactamase (MBL) comprising a zinc chelating moiety” (Universitetet I Oslo, priority 2013, dated 2019).

The target of test [1] is VIM-2 (Escherichia coli, UniProt Q5U7L7). The test is described as follows: IC50 determination against purified MBL, nitrocefin reporter substrate. The format is biochemical. The note with it: purified enzyme 1 nM, nitrocefin 50 μM, 25° C. As to the method:
(§1) General Protocol for Determination of IC50-Values
(§2) Buffers: A: 50 mM HEPES pH 7.2, 100 μM ZnCl2
(§3) • B: 50 mM HEPES pH 7.2, 100 μM ZnCl2 and 400 μg/ml Bovine Serum Albumin (BSA) Equipment: SpectraMax 96 well reader • 96 well plates • Cuvettes • General plastics: dilution tubes, eppendorfs etc. Method: Inhibitors: a. Dissolved in 100% DMSO at a concentration of 10 mM • b. Dissolve the inhibitor in buffer A to a concentration of 25% DMSO. No more than 2.5% DMSO is tolerable in the assay. 100% DMSO (10 mM); […]; […] • c. Make a 2-fold dilution series of the inhibitor. At least 8 dilutions should be made. See example in table 1 Reporter Substrate (Nitrocefin): • a. Dilute a small amount of nitrocefin in 1 ml of DMSO • b. Add 990 μl buffer A+10 μl of nitrocefin to a cuvette. • c. Measure initial OD at absorbance specific for the substrate • d. Add purified enzyme to the cuvette and let the hydrolysis run to completion (the more concentrated the enzyme the faster the hydrolysis will run) • e. Measure the end OD • f. Calculate the concentration of substrate: [(End OD−Initial OD)×dilution factor]/Δε (Δε Nitrocefin=17400) • g. Dilute nitrocefin to 100 μM in buffer A Enzyme: Dilute purified enzyme in buffer B to a concentration of 10 nM. Assay: a. Set the settings and temperature on the Spectramax/software: • I. Kinetics • II. λ: 482 • III. Time: 20 min • IV. Interval: 2-5 sec. • V. Mix before 1st read: 5 sec. • VI. Temp: 25° C. • b. Add 30 μl buffer A, 10 μl purified enzyme (final concn. 1 nM), and 10 μl inhibitor to assay wells (duplicates for each inhibitor concentration). Also include a negative control. Wells with no added inhibitor, just 40 μl buffer A. See illustration in table 1. • c. Incubate the plate in the reader for 5 min. • d. Add 50 μl nitrocefin (final concn. 50 μM) to assay wells. This should be done quickly—preferably with an electronic multi-channel pipette. • e. Start the readings immediately. Determine: the initial velocity (V0) for each inhibitor concentration and calculate IC50.

For test [2], the target named is VIM-2 in E. coli SNO3 containing pET26b-blaVIM-2 (Escherichia coli, UniProt Q5U7L7). The test is described as follows: MBL inhibition in whole E. coli cells expressing MBL (nitrocefin hydrolysis). The class given is cell-based. Particulars: whole cell, test substance 250 μM.
Test [3] addresses GIM-1 in E. coli SNO3 containing pET26b-blaGIM-1 (Pseudomonas aeruginosa, UniProt Q704V1). Described as above. The note with it: whole cell, test substance 250 μM. The class given is cell-based.
For test [4], the target named is GIM-1 (Pseudomonas aeruginosa, UniProt Q704V1). Kind of test: IC50 determination against purified MBL, nitrocefin reporter substrate. The class given is biochemical. Particulars: purified enzyme 1 nM, nitrocefin 50 μM, 25° C. Here is the method: as §1, §2, §3
For test [5], the target named is NDM-1 (Klebsiella pneumoniae, UniProt C7C422). Described as above. The format is biochemical. Particulars: purified enzyme 1 nM, nitrocefin 50 μM, 25° C. Here is the method: as §1, §2, §3
In test [6] the test system is MBL-negative clinical strains. Kind of test: Synergy with meropenem in MBL-negative clinical strains. The class given is cell-based. Here is the method: (§4) General Protocol for Microbroth Dilution Method for Evaluating Antibacterial Activity of Compounds or Synergistic Effect of Compound-Antibiotic Combination
(§5) • Plate bacterial strain(s) on appropriate media: • Gram-negative bacteria with ESBLs or carbapenemases: green agar plates with 100 mg/L ampicillin • Gram-negative bacteria without β-lactamases: green agar plates • Gram-positive bacteria (Staphylococci and Enterococci): blood agar plates • Incubate o.n. at 37° C. Day 2: Prepare the Bacterial Inoculum: • Prepare a 0.5 McFarland suspension of bacteria in 0.85% NaCl. (Should be used within 15 min of preparation). • Dilute the 0.5 McFarland suspension 1:100 into MH broth. Check the inoculum by diluting the prepared bacterial suspension 1:100 (10 μl bacterial suspension+990 μl 0.85% NaCl). Plate 10 μl of the dilution on MH agar plates (×2). Incubate o.n. at 37° C., count the colonies and calculate the final CFU/ml inoculum in the plate by multiplying the average number of colonies with 10000 and divide by 2. The final inoculum should be between 3-7×10^5 CFU/ml. • Add 50 μl of the prepared bacterial suspension to each well in the microtiter plate except negative growth control. Preparation of Compounds/Antibiotics • Calculate the desired concentration-range and volume of the compounds/antibiotics in the assay. […] Dilute the stock solution in MH broth. […]

Test [7] concerns E. coli 50739467 (MBL negative). The test is described as follows: Microbroth dilution, meropenem MIC with/without compound. The format is cell-based. Particulars: 50739467 E. coli MBL negative. Here is the method: as §4
(§6) • Plate bacterial strain(s) on appropriate media: • Gram-negative bacteria with ESBLs or carbapenemases: green agar plates with 100 mg/L ampicillin • Gram-negative bacteria without β-lactamases: green agar plates • Gram-positive bacteria (Staphylococci and Enterococci): blood agar plates • Incubate o.n. at 37° C. Day 2: Prepare the Bacterial Inoculum: • Prepare a 0.5 McFarland suspension of bacteria in 0.85% NaCl. (Should be used within 15 min of preparation). • Dilute the 0.5 McFarland suspension 1:100 into MH broth. Check the inoculum by diluting the prepared bacterial suspension 1:100 (10 μl bacterial suspension+990 μl 0.85% NaCl). Plate 10 μl of the dilution on MH agar plates (×2). Incubate o.n. at 37° C., count the colonies and calculate the final CFU/ml inoculum in the plate by multiplying the average number of colonies with 10000 and divide by 2. The final inoculum should be between 3-7×10^5 CFU/ml. • Add 50 μl of the prepared bacterial suspension to each well in the microtiter plate except negative growth control. Preparation of Compounds/Antibiotics • Calculate the desired concentration-range and volume of the compounds/antibiotics in the assay. […] Dilute the stock solution in MH broth. Make subsequent 2-fold dilutions in MH broth of the desired concentrations if a concentration range is to be tested (remember the extra dilution factor in the assay plate). Always include extra volume for pipetting. Take into consideration stock solutions that are made in buffers that have an effect on bacterial growth (e.g. DMSO). Assay: • Determining the MIC of compounds/antibiotics alone: • Add 25 μl of each concentration of compound/antibiotic to row 2-11 (highest concentration in row 2) • Add 25 μl MH broth to row 2-11 • Add 50 μl MH broth to row 12 (positive control) • Add 100 μl MH broth to row 1 • Add 50 μl bacterial suspension to row 2-12. • Determining the MIC of antibiotics+compounds: • Add 25 μl of each concentration of antibiotic to row 2-11 (highest concentration in row 2) • Add 25 μl of compound to row 2-11 • Add 50 μl MH broth to row 12 (positive control) • Add 100 μl MH broth to row 1 • Add 50 μl bacterial suspension to row 2-12. • Incubate the plate for 20 hrs at 37° C. and determine the MIC in the presence and absence of inhibitor.

For test [8], the system named is K. pneumoniae 50732159 (MBL negative). The description is as above. Particulars: 50732159 K. pneumoniae MBL negative. The format is cell-based. Here is the method: as §4, §6
In test [9] the test system is K. pneumoniae A3-81 (VIM-1). The description is as above. The format is cell-based. The note with it: absence of inhibitor; A3-81 K. pneumoniae VIM-1. Here is the method: as §4, §6
The subject of test [10] is E. coli K71-77 (NDM-1). The description is as above. The class given is cell-based. The note with it: absence of inhibitor; K71-77 E. coli NDM-1. Here is the method: as §4, §6
In test [11] the test system is K. pneumoniae K66-45 (NDM-1). Described as above. The note with it: absence of inhibitor; K66-45 K. pneumoniae NDM-1. The format is cell-based. Here is the method: as §4, §6
Test [12] concerns E. coli 50639799 (VIM-1). The test is described as above. The class given is cell-based. Particulars: absence of inhibitor; 50639799 E. coli VIM-1. Here is the method: as §4, §6
In test [13] the test system is P. aeruginosa 50808021 (MBL negative). The description is as above. The class given is cell-based. Particulars: compound at 125 μM; 50808021 P. aeruginosa MBL negative. Here is the method: as §4, §6
For test [14], the system named is MBL-producing P. aeruginosa, K. pneumoniae and E. coli. Kind of test: Synergy with meropenem in MBL-producing clinical strains. The format is cell-based. Particulars: compound 125 μM. As to the method:
as §4, §5

Molecules are shown by their SMILES.

Chain of GIM-1 (Q704V1 19-250 limits assumed): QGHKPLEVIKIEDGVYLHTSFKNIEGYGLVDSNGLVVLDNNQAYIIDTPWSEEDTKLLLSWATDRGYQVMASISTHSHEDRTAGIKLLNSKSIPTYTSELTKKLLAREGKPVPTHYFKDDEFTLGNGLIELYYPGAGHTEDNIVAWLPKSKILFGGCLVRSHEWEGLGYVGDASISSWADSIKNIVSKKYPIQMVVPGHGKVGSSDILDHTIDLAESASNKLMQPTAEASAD
Chain of GIM-1 in E. coli SNO3 containing pET26b-blaGIM-1 (Q704V1 19-250 limits assumed): as above
Chain of NDM-1 (C7C422 whole entry, looked up, species assumed): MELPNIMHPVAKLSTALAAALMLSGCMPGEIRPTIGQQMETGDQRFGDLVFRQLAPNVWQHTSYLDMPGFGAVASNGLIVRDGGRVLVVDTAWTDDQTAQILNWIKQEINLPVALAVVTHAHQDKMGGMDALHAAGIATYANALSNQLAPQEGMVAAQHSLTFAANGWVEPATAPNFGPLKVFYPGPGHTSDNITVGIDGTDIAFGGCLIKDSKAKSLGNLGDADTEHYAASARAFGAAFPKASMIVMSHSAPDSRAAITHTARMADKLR

The molecule `COc1ccc(Cn2cc(CN(Cc3ccccn3)Cc3ccccn3)nn2)cc1` [Example 3, 1-(1-(4-methoxybenzyl)-1H-1,2,3-triazol-4-yl)-N,N-bis(pyridin-2-ylmethyl)methanamine] had an IC50 in test [1] of 19.8 µM. Further, the results for the inhibition at 250 µM in test [2] and in [3] were 74% and 15.7%, respectively.
Regarding `COc1cc(-n2cc(CN(Cc3ccccn3)Cc3ccccn3)nn2)cc(OC)c1OC` [Example 5, 1-(pyridin-2-yl)-N-(pyridin-2-ylmethyl)-N-((1-(3,4,5-trimethoxyphenyl)-1H-1,2,3-triazol-4-yl)methyl)methanamine], the concentration for half-maximal inhibition (IC50) in test [1] is 11.5 µM; in test [4], 0.79 µM. Further, the values for the inhibition at 250 µM in [2] and in test [3] were 73.8% and 14.4%, respectively.
For `O=[N+]([O-])c1ccc(Cn2cc(CN(Cc3ccccn3)Cc3ccccn3)nn2)cc1` [Example 6, 1-(1-(4-nitrobenzyl)-1H-1,2,3-triazol-4-yl)-N,N-bis(pyridin-2-ylmethyl)methanamine], the half-maximal inhibitory concentration (IC50) in [1] turned out to be 40.9 µM; in [4], 0.71 µM. In addition, the inhibition at 250 µM in test [2] stood at 82.1%; in test [3], 20.6%.
`COc1cc(Cn2cc(CN(Cc3ccccn3)Cc3ccccn3)nn2)cc(OC)c1OC` [Example 7, 1-(pyridin-2-yl)-N-(pyridin-2-ylmethyl)-N-((1-(3,4,5-trimethoxybenzyl)-1H-1,2,3-triazol-4-yl)methyl)methanamine]: the concentration for half-maximal inhibition (IC50) in test [1] stood at 18.7 µM; in test [4], 0.14 µM. The inhibition at 250 µM in test [2] was determined as 75.3%; in test [3] it was 12.5%.
Regarding `COc1ccc(Cn2cc(CN(Cc3ccccn3)Cc3ccccn3)nn2)cc1[N+](=O)[O-]` [Example 8, 1-(1-(4-methoxy-3-nitrobenzyl)-1H-1,2,3-triazol-4-yl)-N,N-bis(pyridin-2-ylmethyl)methanamine], the IC50 came out at 14.8 µM in [1], 1.06 µM in test [5] and 1.03 µM in [4]. The figures for the inhibition at 250 µM in test [2] and in [3] were 83% and 22.2%, respectively.
Turning to `COc1ccc(Cn2cc(CN(Cc3ccccn3)Cc3ccccn3)nn2)cc1Br` [Example 9], the IC50 in test [1] was 19 µM; in test [5] it was 0.6 µM; in test [4], 3.15 µM. For the same molecule, the inhibition at 250 µM in test [2] came out at 84.2%; in test [3], 14.8%.
Consider `COc1ccc(-n2cc(CN(Cc3ccccn3)Cc3ccccn3)nn2)c(OC)c1` [Example 11, 1-(1-(2,4-dimethoxyphenyl)-1H-1,2,3-triazol-4-yl)-N,N-bis(pyridin-2-ylmethyl)methanamine], for which the IC50 worked out at 12.2 µM in test [1] and 0.86 µM in test [4]. Further, the inhibition at 250 µM in test [2] turned out to be 75.1%; in test [3] it was 16.5%.
Regarding `FC(F)(F)c1ccc(-n2cc(CN(Cc3ccccn3)Cc3ccccn3)nn2)cc1` [Example 12, 1-(pyridin-2-yl)-N-(pyridin-2-ylmethyl)-N-((1-(4-(trifluoromethyl)phenyl)-1H-1,2,3-triazol-4-yl)methyl)methanamine], the values for the IC50 in [1] and in test [4] were 12.9 µM and 1.1 µM, respectively. Further, the inhibition at 250 µM in test [2] is 64.2%; in [3], 15.7%. The “synergistic effect with meropenem” value in test [6] is reported as “No synergistic effect”.
For `COc1ccc(-n2cc(CN(Cc3ccccn3)Cc3ccccn3)nn2)cc1` [Example 13, 1-(1-(4-methoxyphenyl)-1H-1,2,3-triazol-4-yl)-N,N-bis(pyridin-2-ylmethyl)methanamine], the IC50 in [1] stood at 24.9 µM; in test [5], 0.72 µM; in [4] it was 1.43 µM. Besides, the inhibition at 250 µM is 82% in [2] and 20.6% in test [3].
`C[C@@H](O)[C@H]1C(=O)N2C(C(=O)O)=C(S[C@@H]3CN[C@H](C(=O)N(C)C)C3)[C@H](C)[C@H]12` [MEM, Meropenem]: the “Meropenem MIC” value in test [7] (absence of inhibitor) is 0.5 µg/mL; in [8] (absence of inhibitor), 32 µg/mL; in test [9], 64 to 256 µg/mL; in test [10] it was 1 to 4 µg/mL; in test [11], 32 to 64 µg/mL; in test [12], 8 to 16 µg/mL.
On to `c1ccc(CN(CCN(Cc2ccccn2)Cc2ccccn2)Cc2ccccn2)nc1` [TPEN, N,N,N′,N′-tetrakis(2-pyridylmethyl) ethylenediamine, reference compound], for which the “Meropenem MIC (mg/L) in presence of compound” value was 1 mg/L in test [7] (compound at 125 μM), ≤0.064 mg/L in test [8] (compound at 125 μM) and 64 mg/L in test [13]. Moreover, the IC50 in test [1] is 0.3 µM; in [4] it was 0.61 µM. Moreover, the “synergistic activity with meropenem” value in test [14] is “Synergistic activity”.
